In patent publication US20060276455A1, “Use of a mast cell activation or degranulation blocking agent in the manufacture of a medicament for the treatment of cerebral ischemia” (priority 2003, published 2006):

Experiments:
[1] = test system: focal cerebral ischemia in rats (middle cerebral artery occlusion); assay: Postischemic neutrophil response (Leder staining) after transient MCA occlusion; type: in vivo, rat; details: i.c.v. pretreatment, 4 h after MCAO, vs control
Source text: We used the suture MCA occlusion model with reperfusion, described elsewhere. Briefly, we exposed the right common carotid artery (CCA) and the right external carotid artery (ECA) through a ventral midline neck incision. We ligated the proximal CCA and the origin of the ECA. We inserted a 4-0 nylon mono-filament suture (Ethilon Nylon Suture, ETHICON) with its tip rounded by heating near a flame and then coated with silicone into the right CCA via an arteriectomy. Reperfusion was accomplished by withdrawing the suture occluder 60 minutes after MCAO, whereafter the animals were allowed to recover. Four hours after MCAO, the rats were killed by injecting intraperitoneally 120 mg of pentobarbital natrium (Mebumat). Cardiac perfusion was performed with the heart still beating but respiration ceased by infusing 250 mL of ice cold 0.9% saline at an inflow pressure of 100 mmHg into the arterial vascular system. […] The densities of intravascular and emigrated neutrophils were counted without prior knowledge of animal grouping in systematically placed target areas, the temporoparietal infarction core, the parasagittal infarct penumbra and the deep thalamic and basal ganglia. In each area, 60 to 100 microscopic fields of 0.1 mm^2 were counted and averaged for each location. […]

[2] = test system: cerebral hemorrhage in rats; assay: Surgically induced cerebral hemorrhage (autologous blood injection), outcome at 24 h; details: i.c.v.
Procedure: In anesthesized rats, 2 craniotomies were performed for the introduction of drug infusion and blood. We injected 50 microliters of autologous arterial blood via stereotactically a Hamilton needle tip placed to the caudate putamen (6 mm from skull surface), a common location of spontaneous cerebral hemorrhages.
Animals were allowed to recover and 24 h later their level of neurological deterioration was rated on a 6-point scale: 5=dead, 4=stuporous, moribund, 3=hemiparetic with balance disturbance, 2=hemiparesis, 1=paresis of contralateral paw, 0=normal. The mortality was also recorded by 24 hours.

O=C(O)c1cc(=O)c2c(OCC(O)COc3cccc4oc(C(=O)O)cc(=O)c34)cccc2o1 [disodium cromoglycate]
decrease of density of neutrophils in the infarcted hemisphere [1]: 37% | six-point neurological score (0=normal, 5=dead), average ([2]; 24 h, saline-treated 3.2, p<0.01): 0.89 | mortality by 24 hours ([2]; saline-treated group 40%): 0%
